Measured values taken from patent US20230381142A1, “ANTILEISHMANIAL COMPOUNDS, COMPOSITIONS AND USE THEREOF” (TRUSTEES OF BOSTON UNIVERSITY, priority 2022, published 2023).

What follows are molecules tested on L. donovani intracellular amastigotes in B10R cells (assay: UCSD L. donovani infection assay (Assay Conditions D)). Conditions: B10R cells.
Assay type: cell-based
Experimental: (§1) Assay Conditions D: B10R cells (CVCL_0155) were seeded at 300 cells/well, and L. donovani WT promastigotes in stationary phase (7th day after passage) were added at 6,000 parasites/well (ratio of 20 parasites/cell). Both cells and parasites were seeded in DMEM High-Glucose medium (Gibco, cat. no. 11995065) containing 5% Fetal Bovine Serum (Sigma-Aldrich, cat. no. F2442) and 1% Penicillin-Streptomycin (Gibco, cat. no. 15140122). Cells and parasites were incubated in the presence of the compounds for 72 h at 37° C. and 5% C02. Plates were then fixed with 4% formaldehyde solution for at least 1 h, then washed with 1×PBS and stained with 5 μg/mL DAPI. Plates were read using an ImageXpress microscope (Molecular Devices) and analyzed by MetaXpress software (Molecular Devices) using a custom module optimized for this assay. […] Compounds were tested in a 10-point 2-fold serial dilution in 3 technical replicates, and 2 biological replicates. After 72 h, plates were fixed and stained with DAPI as described above. Images were acquired on an ImageXpress microscope, and analyzed using the MetaXpress custom module.
as §1, with “Compounds were obtained as 0.2 μmoles of dried film for primary single point screening. Each compound was diluted in DMSO to 10 μM final testing concentration. These compounds were tested in 2 biological replicates. The compounds were pre-spotted onto 384-well assay plates in single concentration.” for “Assay Conditions D:”, “CO2.” for “C02.”, “module. The DRCs were plotted, half-effective concentration (EC50) and half-cytotoxic concentration (CC50) were calculated using GraphPad Prism Software, version 6.05 (GraphPad Software, San Diego, CA).” for “module.”

SMILES	L. donovani amastigotes EC75 (μM, B10R cells) [µM]
Cc1ccc(C2c3c(CC(C)C)n[nH]c3C(=O)N2c2ccc3ncnn3c2)cc1 (stereo not drawn) [BUCMD00156]	>10
CC(C)Cc1n[nH]c2c1C(C1CCCCC1)N(c1ccc3ncnn3c1)C2=O (stereo not drawn) [BUCMD00157]	>10
CC(C)Cc1n[nH]c2c1C(c1cccs1)N(c1ccc3ncnn3c1)C2=O (stereo not drawn) [BUCMD00158]	>10
COc1cccc(C2c3c(CC(C)C)n[nH]c3C(=O)N2c2ccc3ncnn3c2)c1 (stereo not drawn) [BUCMD00159]	>10
CC(C)Cc1n[nH]c2c1C(c1ccc(F)cc1Br)N(c1ccc3ncnn3c1)C2=O (stereo not drawn) [BUCMD00160]	>10
CC(C)Cc1n[nH]c2c1C(c1cc(C(F)(F)F)ccc1Br)N(c1ccc3ncnn3c1)C2=O (stereo not drawn) [BUCMD00161]	>10
COc1cc(N2C(=O)c3[nH]nc(CC(C)C)c3C2c2ccc(F)cc2)ccn1 (stereo not drawn) [BUCMD00163]	>10
COc1cc(N2C(=O)c3[nH]nc(CC(C)C)c3C2c2ccc(F)cc2)ccc1Br (stereo not drawn) [BUCMD00164]	>10
COc1cc(OC)cc(N2C(=O)c3[nH]nc(CC(C)C)c3C2c2ccc(F)cc2)c1 (stereo not drawn) [BUCMD00165]	>10
Cc1cccnc1N1C(=O)c2[nH]nc(CC(C)C)c2C1c1ccc(F)cc1 (stereo not drawn) [BUCMD00166]	>10
Cc1cc(Br)cnc1N1C(=O)c2[nH]nc(CC(C)C)c2C1c1ccc(F)cc1 (stereo not drawn) [BUCMD00167]	>10
Cc1cc(Cl)cnc1N1C(=O)c2[nH]nc(CC(C)C)c2C1c1ccc(F)cc1 (stereo not drawn) [BUCMD00168]	>10
Cc1cc(N2C(=O)c3[nH]nc(CC(C)C)c3C2c2ccc(F)cc2)n(C)n1 (stereo not drawn) [BUCMD00169]	>10
CC(C)Cc1n[nH]c2c1C(c1ccc(F)cc1)N(c1cc(C3CC3)[nH]n1)C2=O (stereo not drawn) [BUCMD00170]	>10
CC(C)Cc1n[nH]c2c1C(c1ccc(F)cc1)N(c1cc(C(C)C)nn1C)C2=O (stereo not drawn) [BUCMD00171]	>10
CC(C)Cc1n[nH]c2c1C(c1ccc(F)cc1)N(c1cncc(Br)c1)C2=O (stereo not drawn) [BUCMD00172]	>10
Cc1ccnc(N2C(=O)c3[nH]nc(CC(C)C)c3C2c2ccc(F)cc2)c1 (stereo not drawn) [BUCMD00173]	>10
Cc1ccc(N2C(=O)c3[nH]nc(CC(C)C)c3C2c2ccc(F)cc2)nc1 (stereo not drawn) [BUCMD00174]	>10
Cc1cccc(N2C(=O)c3[nH]nc(CC(C)C)c3C2c2ccc(F)cc2)n1 (stereo not drawn) [BUCMD00175]	>10
COc1ccc(N2C(=O)c3[nH]nc(CC(C)C)c3C2c2ccc(Br)cc2OC)cn1 (stereo not drawn) [BUCMD00176]	>10
COc1ccc(OC)c(N2C(=O)c3[nH]nc(CC(C)C)c3C2c2ccc(OC)nc2)c1 (stereo not drawn) [BUCMD00177]	>10
CCc1ccc(C2c3c(CC(C)C)n[nH]c3C(=O)N2c2ccc(F)c(OC)c2)cn1 (stereo not drawn) [BUCMD00178]	>10
COc1cc(N2C(=O)c3[nH]nc(CC(C)C)c3C2c2c(C)nn(C)c2Cl)ccc1Br (stereo not drawn) [BUCMD00179]	>10
COc1cc(N2C(=O)c3[nH]nc(CC(C)C)c3C2c2c(C)nn(C)c2Cl)ccc1F (stereo not drawn) [BUCMD00180]	>10
COc1cc(N2C(=O)c3[nH]nc(CC(C)C)c3C2c2cncc(Br)c2)ccn1 (stereo not drawn) [BUCMD00181]	>10
COc1ccc(OC)c(N2C(=O)c3[nH]nc(CC(C)C)c3C2c2cncc(Br)c2)c1 (stereo not drawn) [BUCMD00182]	>10

SMILES	L. donovani amastigotes EC75 (μM, B10R cells) [µM]
COc1cc(N2C(=O)c3[nH]nc(CC(C)C)c3C2c2cncc(Br)c2)ccc1F (stereo not drawn) [BUCMD00183]	>10
COc1cc(OC)cc(N2C(=O)c3[nH]nc(CC(C)C)c3C2c2cncc(Br)c2)c1 (stereo not drawn) [BUCMD00184]	>10
COc1cccc(N2C(=O)c3[nH]nc(CC(C)C)c3C2c2cncc(Br)c2)c1 (stereo not drawn) [BUCMD00185]	>10
COc1cc(N2C(=O)c3[nH]nc(CC(C)C)c3C2c2ccc(F)cc2C)ccn1 (stereo not drawn) [BUCMD00186]	>10
COc1cc(N2C(=O)c3[nH]nc(CC(C)C)c3C2c2cc(Br)ccc2F)ccn1 (stereo not drawn) [BUCMD00187]	>10
COc1cc(N2C(=O)c3[nH]nc(CC(C)C)c3C2c2ccc(F)cc2F)ccn1 (stereo not drawn) [BUCMD00188]	>10
COc1ncccc1C1c2c(CC(C)C)n[nH]c2C(=O)N1c1ncccc1C (stereo not drawn) [BUCMD00189]	>10
COc1ncccc1C1c2c(CC(C)C)n[nH]c2C(=O)N1c1ncc(Br)cc1C (stereo not drawn) [BUCMD00190]	>10
COc1ncccc1C1c2c(CC(C)C)n[nH]c2C(=O)N1c1ncc(Cl)cc1C (stereo not drawn) [BUCMD00191]	>10
Cc1cc(N2C(=O)c3[nH]nc(CC(C)C)c3C2c2ccc(Br)cc2)n(C)n1 (stereo not drawn) [BUCMD00192]	>10
Cc1cc(N2C(=O)c3[nH]nc(CC(C)C)c3C2c2ccc(Cl)cc2)n(C)n1 (stereo not drawn) [BUCMD00193]	>10
COc1cc(C2c3c(CC(C)C)n[nH]c3C(=O)N2c2cc(C)nn2C)cc(OC)c1Br (stereo not drawn) [BUCMD00194]	>10
COc1cc(C2c3c(CC(C)C)n[nH]c3C(=O)N2c2cc(C3CC3)[nH]n2)cc(OC)c1Br (stereo not drawn) [BUCMD00195]	>10
COc1ccc(OC)c(C2c3c(CC(C)C)n[nH]c3C(=O)N2c2cncc(Br)c2)c1 (stereo not drawn) [BUCMD00196]	>10
COc1ccc(OC)c(C2c3c(CC(C)C)n[nH]c3C(=O)N2c2cc(C)ccn2)c1 (stereo not drawn) [BUCMD00197]	>10
COc1ccc(OC)c(C2c3c(CC(C)C)n[nH]c3C(=O)N2c2ccc(C)cn2)c1 (stereo not drawn) [BUCMD00198]	>10
COc1ccc(OC)c(C2c3c(CC(C)C)n[nH]c3C(=O)N2c2cccc(C)n2)c1 (stereo not drawn) [BUCMD00199]	>10
Cc1ccc(N2C(=O)c3[nH]nc(CC(C)C)c3C2c2ccc(F)cc2Br)cn1 (stereo not drawn) [BUCMD00629]	1.0
Cc1ccc(N2C(=O)c3[nH]nc(CC(C)C)c3C2c2ccc(F)cc2F)cn1 (stereo not drawn) [BUCMD00630]	7.3
Cc1cc(N2C(=O)c3[nH]nc(CC(C)C)c3C2c2ccc(F)cc2Br)ccn1 (stereo not drawn) [BUCMD00643]	1.2
Cc1cc(F)ccc1C1c2c(CC(C)C)n[nH]c2C(=O)N1c1ccn(C)n1 (stereo not drawn) [BUCMD00652]	>10
CC(C)Cc1n[nH]c2c1C(c1ccc(Br)cc1F)N(c1ccn(C)n1)C2=O (stereo not drawn) [BUCMD00653]	>10
CC(C)Cc1n[nH]c2c1C(c1ccc(F)cc1Cl)N(c1ccn(C)n1)C2=O (stereo not drawn) [BUCMD00654]	>10
CC(C)Cc1n[nH]c2c1C(c1ccc(Cl)cc1F)N(c1ccn(C)n1)C2=O (stereo not drawn) [BUCMD00655]	>10
CC(C)Cc1n[nH]c2c1C(c1ccccc1Cl)N(c1ccn(C)n1)C2=O (stereo not drawn) [BUCMD00656]	>10
